These results are taken from ChEMBL document CHEMBL1201862, “PubChem BioAssay data set” (2004).

The target in assay [1] is Glycogen synthase kinase-3 alpha (Homo sapiens, UniProt P49840). As to the kind of experiment: Inhibition of Human GSK-3 alpha Activity Measured in Biochemical System Using Microfluidics - 2063-06_Inhibitor_Dose_DryPowder_Activity_Set2. [Related pubchem assays (depositor defined):AID2709].
In assay [2] the target is T1, Glycogen synthase kinase-3 beta (Homo sapiens, UniProt P49841). Nature of the assay: Inhibition of Human GSK-3 beta Activity Measured in Biochemical System Using Microfluidics - 2063-05_Inhibitor_Dose_DryPowder_Activity_Set2. [Related pubchem assays (depositor defined):AID2709].
Assay [3] has as its target Cyclin-dependent kinase 5/CDK5 activator 1 (Homo sapiens, UniProt Q00535). As to the kind of experiment: CDK5-p25 kinase inhibitors, specificity check, dose response, selectivity assay for GSK-3 alpha inhibitor project, biochemical, microfluidic mobility shift, dry powder (AID 588430).
Assay [4] deals with T2, Phospholipase D1 (Homo sapiens, UniProt Q13393). Nature of the assay: PLD1 inhibitor potency in cells, dose response (AID 602151).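 Also: cellular PLD1 assay in Calu-1 cells stimulated with PMA.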 The class given is functional.
The target in assay [5] is T3, Phospholipase D2 (Homo sapiens, UniProt O14939). Nature of the assay: PLD2 inhibitor potency in cells, dose response (AID 602147).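 Also: cellular assay in HEK293 cells overexpressing GFP-tagged PLD2.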 The class given is functional.
The target of assay [6] is T2, Phospholipase D1. As to the kind of experiment: PLD1 purified enzyme concentration response. [Related pubchem assays (depositor defined):AID588854]. The class given is functional.
For assay [7], the target named is T3, Phospholipase D2. Nature of the assay: PLD2 purified enzyme concentration response. [Related pubchem assays (depositor defined):AID588854]. The class given is functional.
Assay [8] has as its target Serine/threonine-protein kinase pim-1 (Homo sapiens, UniProt P11309). It is filed as functional.
Assay [9] addresses Cell division cycle 7-related protein kinase (Homo sapiens, UniProt O00311). The class given is functional.
In assay [10] the target is Homeodomain-interacting protein kinase 2 (Homo sapiens, UniProt Q9H2X6). It is filed as functional.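 Also: measured within a kinome-wide kinase profiling panel, HIPK2 being one panel member.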
For assay [11], the target named is Interleukin-1 receptor-associated kinase 4 (Homo sapiens, UniProt Q9NWZ3). The class given is functional.
Assay [12] has as its target T1, Glycogen synthase kinase-3 beta. It is filed as functional.
The target in assay [13] is cAMP-dependent protein kinase catalytic subunit alpha (Homo sapiens, UniProt P17612). The class given is functional.
The target of assay [14] is Mitogen-activated protein kinase kinase kinase kinase 4 (Homo sapiens, UniProt O95819). It is filed as functional.
Assay [15] addresses ALK tyrosine kinase receptor (Homo sapiens, UniProt Q9UM73). The class given is functional.
The target of a further assay is Wee1-like protein kinase (Homo sapiens, UniProt P30291). Nature of the assay: Navigating the Kinome. Panel member name: WEE1. It is filed as functional.
Assay [16] deals with Serine/threonine-protein kinase Chk2 (Homo sapiens, UniProt O96017). It is filed as functional.
Assay [17] addresses Cyclin-dependent kinase 2 (Homo sapiens, UniProt P24941). It is filed as functional.
The target in assay [18] is MAP kinase-activated protein kinase 3 (Homo sapiens, UniProt Q16644). The class given is functional.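 Also: value comes from a kinome-wide profiling panel in which MAPKAPK3 is one of the panel members.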
In assay [19] the target is Casein kinase I isoform delta (Homo sapiens, UniProt P48730). It is filed as functional.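 Also: measured as one member (CSNK1D) of a kinome panel.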
The target of assay [20] is Cyclin-dependent kinase 5 (Homo sapiens, UniProt Q00535). The class given is functional.
Assay [21] concerns the target Cyclin-dependent kinase 1 (Homo sapiens, UniProt P06493). The class given is functional.
Assay [22] has as its target Cyclin-dependent kinase 19 (Homo sapiens, UniProt Q9BWU1). Nature of the assay: Navigating the Kinome. Panel member name: CDC2L6. It is filed as functional.
Assay [23] deals with DNA dC->dU-editing enzyme APOBEC-3G (Homo sapiens, UniProt Q9HC16). As to the kind of experiment: APOBEC3G deaminase inhibitors, SAR follow-up, biochemical, fluorescence, single-stranded DNA substrate (AID 602136). The class given is functional. Conditions: read-out: IC50_Mean.
In assay [24] the target is DNA dC->dU-editing enzyme APOBEC-3A (Homo sapiens, UniProt P31941). As to the kind of experiment: SAR analysis of small molecule inhibitors of APOBEC3A DNA Deaminase via a fluorescence-based single-stranded DNA deaminase assay. The class given is functional. To be noted: read-out: IC50_Mean.
The target in assay [25] is Protein kinase C zeta type (Homo sapiens, UniProt Q05513). The class given is functional.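 Also: measured as one member of a broad kinase profiling panel.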
Assay [26] has as its target 3-phosphoinositide-dependent protein kinase 1 (Homo sapiens, UniProt O15530). The class given is functional.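 Also: value comes from the Navigating the Kinome panel, PDPK1 member.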
For assay [27], the target named is C-C chemokine receptor type 6 (Homo sapiens, UniProt P51684). Nature of the assay: CCR6 receptor antagonists, dose response, cell-based, luminescent beta-arrestin readout (AID 504728). The class given is functional.
In a further assay the target is Beta-galactosidase (Escherichia coli, UniProt Q8VNN2). Nature of the assay: beta-galactosidase enzyme inhibitors and activators, dose response, artefact control for CCR6 antagonist project, biochemical, E. coli enzyme, set 3 (AID 504712). The class given is functional.
Assay [28] has as its target Heat shock protein HSP 90-alpha (Homo sapiens, UniProt P07900). The class given is functional, organism-based.
In the next assay the target is HSP90 (Plasmodium falciparum 3D7, UniProt Q8IL32). The class given is functional, organism-based.

Structures are written as SMILES. Calls of active or inactive are those of the source.

T1 sequence (P49841 whole entry): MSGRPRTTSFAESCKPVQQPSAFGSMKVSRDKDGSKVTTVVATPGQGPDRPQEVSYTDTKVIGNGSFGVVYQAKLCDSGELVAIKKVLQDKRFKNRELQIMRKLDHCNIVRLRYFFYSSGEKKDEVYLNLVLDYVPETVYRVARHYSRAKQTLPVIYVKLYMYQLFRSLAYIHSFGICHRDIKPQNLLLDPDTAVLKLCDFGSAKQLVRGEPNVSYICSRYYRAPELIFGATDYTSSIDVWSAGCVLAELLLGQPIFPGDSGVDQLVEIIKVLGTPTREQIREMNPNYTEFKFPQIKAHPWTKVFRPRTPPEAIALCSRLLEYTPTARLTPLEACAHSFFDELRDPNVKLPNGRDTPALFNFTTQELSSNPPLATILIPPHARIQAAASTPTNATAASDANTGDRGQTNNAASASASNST
T3 sequence (O14939 whole entry): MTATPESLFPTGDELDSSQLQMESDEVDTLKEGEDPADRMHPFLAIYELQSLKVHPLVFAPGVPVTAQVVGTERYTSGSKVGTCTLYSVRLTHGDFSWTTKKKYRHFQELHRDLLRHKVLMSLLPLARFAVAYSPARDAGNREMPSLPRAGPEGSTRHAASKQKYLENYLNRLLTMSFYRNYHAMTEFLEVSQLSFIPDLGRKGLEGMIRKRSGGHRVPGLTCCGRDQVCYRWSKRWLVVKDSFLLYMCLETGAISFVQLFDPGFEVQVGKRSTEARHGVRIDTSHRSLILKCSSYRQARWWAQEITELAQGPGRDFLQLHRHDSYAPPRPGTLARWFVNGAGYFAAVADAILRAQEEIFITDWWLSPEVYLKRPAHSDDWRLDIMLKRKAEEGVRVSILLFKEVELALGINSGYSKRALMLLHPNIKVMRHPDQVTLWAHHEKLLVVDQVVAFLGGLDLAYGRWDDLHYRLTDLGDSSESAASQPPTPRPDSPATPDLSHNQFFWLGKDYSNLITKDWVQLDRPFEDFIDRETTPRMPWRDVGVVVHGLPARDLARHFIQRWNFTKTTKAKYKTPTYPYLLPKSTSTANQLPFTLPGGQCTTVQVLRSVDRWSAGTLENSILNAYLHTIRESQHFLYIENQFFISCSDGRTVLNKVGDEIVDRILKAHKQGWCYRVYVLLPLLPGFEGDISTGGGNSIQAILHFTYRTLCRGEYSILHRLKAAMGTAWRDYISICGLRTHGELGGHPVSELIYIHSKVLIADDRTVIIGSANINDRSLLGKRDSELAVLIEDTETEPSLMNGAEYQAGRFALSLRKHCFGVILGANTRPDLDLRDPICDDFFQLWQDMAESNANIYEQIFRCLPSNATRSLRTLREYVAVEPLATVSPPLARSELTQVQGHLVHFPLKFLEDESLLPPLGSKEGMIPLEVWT
Chain of ALK tyrosine kinase receptor (Q9UM73 whole entry): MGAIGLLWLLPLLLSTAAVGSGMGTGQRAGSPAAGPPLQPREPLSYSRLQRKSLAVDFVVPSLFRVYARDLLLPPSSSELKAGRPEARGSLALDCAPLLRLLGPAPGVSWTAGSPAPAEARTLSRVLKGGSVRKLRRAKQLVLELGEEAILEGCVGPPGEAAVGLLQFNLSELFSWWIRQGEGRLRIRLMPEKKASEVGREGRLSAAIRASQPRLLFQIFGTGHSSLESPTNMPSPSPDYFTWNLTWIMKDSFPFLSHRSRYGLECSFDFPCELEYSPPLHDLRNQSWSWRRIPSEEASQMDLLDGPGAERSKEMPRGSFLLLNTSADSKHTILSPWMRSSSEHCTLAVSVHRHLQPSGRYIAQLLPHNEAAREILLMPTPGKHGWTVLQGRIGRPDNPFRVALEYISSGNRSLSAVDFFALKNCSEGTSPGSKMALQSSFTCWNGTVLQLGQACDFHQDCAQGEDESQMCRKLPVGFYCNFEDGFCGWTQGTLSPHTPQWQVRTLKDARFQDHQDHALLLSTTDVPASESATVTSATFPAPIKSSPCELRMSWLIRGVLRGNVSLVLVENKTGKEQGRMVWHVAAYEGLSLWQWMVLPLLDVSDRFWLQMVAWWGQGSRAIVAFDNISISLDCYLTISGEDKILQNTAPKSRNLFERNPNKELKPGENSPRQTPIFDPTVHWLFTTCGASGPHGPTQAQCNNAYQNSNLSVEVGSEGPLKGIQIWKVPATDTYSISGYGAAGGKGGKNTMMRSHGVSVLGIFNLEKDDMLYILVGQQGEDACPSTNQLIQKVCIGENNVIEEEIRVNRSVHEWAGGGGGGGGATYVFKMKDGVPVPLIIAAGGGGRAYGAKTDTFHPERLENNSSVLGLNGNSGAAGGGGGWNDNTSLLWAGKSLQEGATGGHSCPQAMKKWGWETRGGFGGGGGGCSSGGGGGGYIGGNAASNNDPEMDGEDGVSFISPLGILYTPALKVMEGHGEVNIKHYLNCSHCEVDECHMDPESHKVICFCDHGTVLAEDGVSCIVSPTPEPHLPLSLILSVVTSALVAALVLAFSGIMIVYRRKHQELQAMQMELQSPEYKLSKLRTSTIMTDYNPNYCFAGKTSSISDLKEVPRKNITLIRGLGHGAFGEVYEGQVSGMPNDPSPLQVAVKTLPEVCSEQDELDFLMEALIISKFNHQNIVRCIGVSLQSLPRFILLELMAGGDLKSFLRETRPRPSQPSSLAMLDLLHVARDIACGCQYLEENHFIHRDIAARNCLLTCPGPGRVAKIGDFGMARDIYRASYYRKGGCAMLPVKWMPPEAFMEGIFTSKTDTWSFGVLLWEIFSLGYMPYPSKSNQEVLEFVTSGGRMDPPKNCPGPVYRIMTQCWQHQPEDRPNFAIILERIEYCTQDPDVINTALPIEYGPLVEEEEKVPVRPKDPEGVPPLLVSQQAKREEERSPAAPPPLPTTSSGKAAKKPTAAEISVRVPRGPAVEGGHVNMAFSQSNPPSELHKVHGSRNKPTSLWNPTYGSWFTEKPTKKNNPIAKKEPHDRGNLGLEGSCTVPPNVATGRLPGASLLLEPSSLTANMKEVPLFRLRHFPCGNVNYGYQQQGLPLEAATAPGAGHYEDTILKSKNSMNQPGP
T2 sequence (Q13393 whole entry): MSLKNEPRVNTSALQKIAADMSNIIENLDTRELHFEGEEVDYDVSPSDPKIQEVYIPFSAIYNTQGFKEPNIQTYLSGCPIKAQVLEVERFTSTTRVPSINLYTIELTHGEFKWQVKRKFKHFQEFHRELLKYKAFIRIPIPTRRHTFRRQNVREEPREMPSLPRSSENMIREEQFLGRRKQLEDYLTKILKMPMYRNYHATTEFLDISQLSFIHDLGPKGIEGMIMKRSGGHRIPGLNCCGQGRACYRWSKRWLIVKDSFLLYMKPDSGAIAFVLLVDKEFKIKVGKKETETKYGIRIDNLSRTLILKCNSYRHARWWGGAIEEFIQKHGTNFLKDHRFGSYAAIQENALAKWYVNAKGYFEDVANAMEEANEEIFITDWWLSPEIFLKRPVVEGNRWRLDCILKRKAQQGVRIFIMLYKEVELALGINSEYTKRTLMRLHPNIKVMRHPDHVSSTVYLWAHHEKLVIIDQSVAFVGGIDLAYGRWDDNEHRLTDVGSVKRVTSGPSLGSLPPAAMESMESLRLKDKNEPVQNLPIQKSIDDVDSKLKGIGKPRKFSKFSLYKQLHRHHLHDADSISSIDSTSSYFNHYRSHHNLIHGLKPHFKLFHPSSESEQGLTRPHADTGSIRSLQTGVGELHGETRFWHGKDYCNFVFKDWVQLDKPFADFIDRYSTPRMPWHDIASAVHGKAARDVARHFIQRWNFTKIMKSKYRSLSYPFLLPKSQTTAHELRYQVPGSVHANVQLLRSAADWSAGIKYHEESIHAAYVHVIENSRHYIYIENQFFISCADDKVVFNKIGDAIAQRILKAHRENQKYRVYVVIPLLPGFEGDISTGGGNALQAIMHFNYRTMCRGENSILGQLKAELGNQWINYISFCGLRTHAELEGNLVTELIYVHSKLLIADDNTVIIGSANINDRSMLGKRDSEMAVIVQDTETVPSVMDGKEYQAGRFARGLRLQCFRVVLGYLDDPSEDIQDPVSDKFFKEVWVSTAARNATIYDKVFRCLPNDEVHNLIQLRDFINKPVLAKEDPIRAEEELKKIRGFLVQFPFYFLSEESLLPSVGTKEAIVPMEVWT
Chain of Wee1-like protein kinase (P30291 whole entry): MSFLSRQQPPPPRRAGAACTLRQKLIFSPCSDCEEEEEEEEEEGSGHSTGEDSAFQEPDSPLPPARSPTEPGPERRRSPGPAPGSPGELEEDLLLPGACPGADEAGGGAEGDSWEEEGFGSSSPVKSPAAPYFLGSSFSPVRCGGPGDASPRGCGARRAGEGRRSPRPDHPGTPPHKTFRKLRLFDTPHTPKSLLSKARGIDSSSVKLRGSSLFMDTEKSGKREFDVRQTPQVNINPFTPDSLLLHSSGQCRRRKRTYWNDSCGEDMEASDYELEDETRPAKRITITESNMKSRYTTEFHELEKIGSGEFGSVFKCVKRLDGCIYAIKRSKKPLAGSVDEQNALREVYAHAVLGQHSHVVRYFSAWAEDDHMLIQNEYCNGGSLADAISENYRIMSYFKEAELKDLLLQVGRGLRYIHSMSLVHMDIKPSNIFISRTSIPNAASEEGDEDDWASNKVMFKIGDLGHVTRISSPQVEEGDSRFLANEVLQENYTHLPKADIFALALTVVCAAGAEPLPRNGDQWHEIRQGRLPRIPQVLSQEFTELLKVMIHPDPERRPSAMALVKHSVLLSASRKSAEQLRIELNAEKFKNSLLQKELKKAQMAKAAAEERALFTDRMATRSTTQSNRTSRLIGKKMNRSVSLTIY
Chain of Serine/threonine-protein kinase pim-1 (P11309 whole entry): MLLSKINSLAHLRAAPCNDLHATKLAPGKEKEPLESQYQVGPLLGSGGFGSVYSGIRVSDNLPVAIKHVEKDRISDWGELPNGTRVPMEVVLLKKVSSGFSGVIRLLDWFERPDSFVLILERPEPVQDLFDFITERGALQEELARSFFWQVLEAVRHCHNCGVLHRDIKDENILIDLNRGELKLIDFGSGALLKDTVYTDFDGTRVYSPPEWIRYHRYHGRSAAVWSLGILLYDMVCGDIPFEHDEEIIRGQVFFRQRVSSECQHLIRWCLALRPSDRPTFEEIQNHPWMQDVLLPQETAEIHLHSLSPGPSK

As usually defined, the AC50 is the concentration giving half of the maximal activity seen. Take `Nc1nonc1-n1nnc(C(=O)N/N=C/c2ccccc2F)c1-c1cccs1`: the values for the half-maximal activity concentration (AC50) in assay [1], in assay [2] and in assay [3] were 0.422 µM (active), 0.325 µM (active) and 9.28 µM (active), respectively.

Consider `C[C@@H](CN1CCC(n2c(=O)[nH]c3ccccc32)CC1)NC(=O)COc1ccccc1`, for which the IC50 at Phospholipase D1 [4] is 0.002 µM (active); at Phospholipase D2 [5], 3.8 µM (active); at Phospholipase D1 [6], 0.057 µM (active); on Phospholipase D2 [7], 5.8 µM (active).

A word on the Ki: it is the equilibrium dissociation constant of an inhibitor or competing ligand from its target. In the case of `OCCCCNc1cc(-c2c[nH]c3ncccc23)cc(Cl)n1`, the Ki in [8] is 0.501 µM (active); in assay [9] it was 0.000794 µM (active); in assay [10] it was 0.0251 µM (active); in assay [11], 5.01 µM (active); in [12], 0.1 µM (active); in assay [13], 0.251 µM (active). Also, the Ki in assay [14] is 0.00316 µM (active).

For the compound `CCN1CCN(c2ccc(Nc3ncc(C)c(Nc4ccc5[nH]ncc5c4)n3)cc2)CC1`, the Ki was 0.0398 µM (active) in assay [15] and 0.0158 µM (active) at Wee1-like protein kinase.

Turning to `Cc1c(NC2CCC(N)CC2)nc2ccnn2c1Nc1ccc(F)c(Cl)c1` (configuration not stated), the Ki in assay [16] was 3.98 µM (active); in assay [17], 7.94 µM (active); in assay [18], 2 µM (active); in [19], 3.98 µM (active); in [20] it was 10 µM (active); in [21] it was 7.94 µM (active).

As for `COc1ccccc1Nc1nc(Nc2cnn(C)c2)ncc1Br`, the Ki was 1 µM (active) in assay [15] and 5.01 µM (active) in assay [22].

Consider `c1ccc2c(c1)OCC(c1nnc3c4c5c(sc4ncn13)CCCC5)O2` (configuration not stated), for which the IC50 in [23] and in assay [24] was > 99 µM (inactive) in each case.

As to `O=C(NCc1ccc(Br)cc1)c1cnn2c(-c3ccccc3)ccnc12`, the Ki in [25] and in assay [26] was 2.51 µM (active) throughout.

Regarding `Oc1ccc(Cl)c2cccnc12` [CLOXYQUIN], the IC50 (in assay [27]; on Beta-galactosidase) was > 66.6 µM (inactive) throughout. Moreover, the half-maximal activity concentration (AC50) was 6.15 µM (active) in [28] and 8.36 µM (active) on HSP90.
